Patent US10227344B2, “CK2 inhibitors, compositions and methods thereof” (Polaris Pharmaceuticals, Inc., priority 2016, dated 2019)
Counter-ions that a name gives are not always drawn.

Each compound was assayed against purified CK2α enzyme (Homo sapiens, UniProt P68400) (assay: CK2 Protein Kinase Inhibition Assay (coupled PK/LDH assay)). Conditions: CK2 enzyme 25 nM, 100 μM ATP, 37° C., Morrison equation.
Format: biochemical
Experimental: A coupled PK (pyruvate kinase)/LDH (lactate dehydrogenase) assay was used to measure compounds' ability to inhibit purified CK2α enzyme.
The ADP product of kinase CK2a is the cofactor for PK. Phospho(enol)pyruvate (PEP) PEP is metabolized by pyruvate kinase to yield pyruvate, which is the substrate for LDH.
Serially diluted compounds were pre-incubated for 10 min at 37° C. with and 1.5 mM […] peptide substrate, 6 U/ml PK and 10 U/ml LDH (purchased from Sigma-Aldrich), 100 μM ATP, 1.2 mM NADH, 4 mM PEP in the reaction buffer (50 mM Tris (pH 8.25), 0.1 M NaCl, 10 mM magnesium acetate). The reaction was initiated by the addition of an equal volume of purified CK2 enzyme (final concentration 25 nM) diluted in the reaction buffer. Absorbance at 340 nm was measured overtime (for 30 min) at 37° C.; as NADH was converted to NAD+ the absorbance decreases. Absorbance decrease rate (per min) was plotted against the compound concentration and Ki is determined by GraphPad Prism using Morrison equation. All data points were performed in triplicate and each compound was tested in at least two separate experiments.
To this end, K, values of less than 2.5 nM are labelled as “+++”, from 2.5 nM to 10 nM are labelled as “++”, and greater than 10 nM are labelled as “+”.

Sequence of purified CK2α enzyme (P68400 whole entry): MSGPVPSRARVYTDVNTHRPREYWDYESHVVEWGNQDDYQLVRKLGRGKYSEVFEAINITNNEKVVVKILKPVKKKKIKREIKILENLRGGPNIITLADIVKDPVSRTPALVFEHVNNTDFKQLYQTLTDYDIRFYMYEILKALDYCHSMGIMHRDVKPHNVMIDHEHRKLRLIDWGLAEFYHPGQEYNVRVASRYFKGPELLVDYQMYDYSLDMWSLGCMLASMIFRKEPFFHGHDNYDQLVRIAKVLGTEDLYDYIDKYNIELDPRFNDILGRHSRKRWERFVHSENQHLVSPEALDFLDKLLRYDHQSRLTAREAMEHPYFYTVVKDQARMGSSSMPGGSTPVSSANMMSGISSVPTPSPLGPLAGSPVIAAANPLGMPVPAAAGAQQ

| SMILES | Ki [nM] |
| --- | --- |
| C[S+]([O-])Cc1cc(Nc2cc(NC3CC3)n3ncc(C#N)c3n2)ccc1N1CCC[C@@H](N)C1 (stereo partly drawn) [Example 24, 5-((4-((R)-3-Aminopiperidin-1-yl)-3-(((R,S)-methylsulfinyl)methyl)phenyl)amino)-7-(cyclopropylamino)pyrazolo[1,5-a]pyrimidine-3-carbonitrile mono trifluoroacetic acid salt] | < 2.5 |
| C[S+]([O-])Cc1cc(Nc2cc(NC3CC3)n3ncc(C#N)c3n2)ccc1N1CC(CN)C1 (racemic) [Example 42, (±)-5-((4-(3-(Aminomethyl)azetidin-1-yl)-3-((methylsulfinyl)methyl)phenyl)amino)-7-(cyclopropylamino)pyrazolo[1,5-a]pyrimidine-3-carbonitrile] | < 2.5 |
| CS(=O)(=O)Cc1cc(Nc2cc(NC3CC3)n3ncc(C#N)c3n2)ccc1Cl [Example 2, 5-((4-Chloro-3-((methylsulfonyl)methyl)phenyl)amino)-7-(cyclopropylamino)pyrazolo[1,5-a]pyrimidine-3-carbonitrile] | < 2.5 |
| CN(CCN)c1ccc(Nc2cc(NC3CC3)n3ncc(C#N)c3n2)cc1C[S+](C)[O-] (racemic) [Example 7, (±)-5-((4-((2-Aminoethyl)(methyl)amino)-3-((methylsulfinyl)methyl)phenyl)amino)-7-(cyclopropylamino)pyrazolo[1,5-a]pyrimidine-3-carbonitrile mono trifluoroacetic acid salt] | < 2.5 |
| C[S+]([O-])Cc1cc(Nc2cc(NC3CC3)n3ncc(C#N)c3n2)ccc1N1CC[C@@H](N)C1 (stereo partly drawn) [Example 22, 5-((4-((R)-3-Aminopyrrolidin-1-yl)-3-(((R,S)-methylsulfinyl)methyl)phenyl)amino)-7-(cyclopropylamino)pyrazolo[1,5-a]pyrimidine-3-carbonitrile mono trifluoroacetic acid salt] | < 2.5 |
| C[S+]([O-])Cc1cc(Nc2cc(NC3CC3)n3ncc(C#N)c3n2)ccc1C1(CN)CC1 (racemic) [Example 38, (±)-5-((4-(1-(Aminomethyl)cyclopropyl)-3-((methylsulfinyl)methyl)phenyl)amino)-7-(cyclopropylamino)pyrazolo[1,5-a]pyrimidine-3-carbonitrile] | 2.5 to 10 |
| CS(=O)(=O)Cc1cc(Nc2cc(NC3CC3)n3ncc(C#N)c3n2)ccc1CCN [Example 11, 5-((4-(2-Aminoethyl)-3-((methylsulfonyl)methyl)phenyl)amino)-7-(cyclopropylamino)pyrazolo[1,5-a]pyrimidine-3-carbonitrile mono trifluoroacetic acid salt] | < 2.5 |
| CS(=O)(=O)Cc1cc(Nc2cc(NC3CC3)n3ncc(C#N)c3n2)ccc1N1CC[C@H](N)C1 [Example 29, (S)-5-((4-(3-aminopyrrolidin-1-yl)-3-((methylsulfonyl)methyl)phenyl)amino)-7-(cyclopropylamino)pyrazolo[1,5-a]pyrimidine-3-carbonitrile mono trifluoroacetic acid salt] | < 2.5 |
| C[S+]([O-])Cc1cc(Nc2cc(NC3CC3)n3ncc(C#N)c3n2)ccc1C1CC1 (racemic) [Example 13, (±)-5-((4-Cyclopropyl-3-((methylsulfinyl)methyl)phenyl)amino)-7-(cyclopropylamino)pyrazolo[1,5-a]pyrimidine-3-carbonitrile] | < 2.5 |
| CN(CCN)c1ccc(Nc2cc(NC3CC3)c3ncc(C#N)n3n2)cc1CS(C)(=O)=O [Example 48, 6-((4-((2-aminoethyl)(methyl)amino)-3-((methylsulfonyl)methyl)phenyl)amino)-8-(cyclopropylamino)imidazo[1,2-b]pyridazine-3-carbonitrile mono trifluoroacetic acid salt] | 2.5 to 10 |
| C[S+]([O-])Cc1cc(Nc2cc(NC3CC3)n3ncc(C#N)c3n2)ccc1CCN (racemic) [Example 8, (±)-5-((4-(2-Aminoethyl)-3-((methylsulfinyl)methyl)phenyl)amino)-7-(cyclopropylamino)pyrazolo[1,5-a]pyrimidine-3-carbonitrile mono trifluoroacetic acid salt] | < 2.5 |
| CS(=O)(=O)Cc1cc(Nc2cc(NC3CC3)n3ncc(C#N)c3n2)ccc1N1CC(CN)C1 [Example 43, 5-((4-(3-(Aminomethyl)azetidin-1-yl)-3-((methylsulfonyl)methyl)phenyl)amino)-7-(cyclopropylamino)pyrazolo[1,5-a]pyrimidine-3-carbonitrile] | < 2.5 |
| C[S+]([O-])Cc1cc(Nc2cc(NC3CC3)n3ncc(C#N)c3n2)ccc1OCC1(N)CC1 (racemic) [Example 28, (±)-5-((4-((1-aminocyclopropyl)methoxy)-3-((methylsulfinyl)methyl)phenyl)amino)-7-(cyclopropylamino)pyrazolo[1,5-a]pyrimidine-3-carbonitrile mono trifluoroacetic acid salt] | 2.5 to 10 |
| C[S+]([O-])Cc1cc(Nc2cc(NC3CC3)n3ncc(C#N)c3n2)ccc1-c1cn[nH]c1 (racemic) [Example 35, (±)-7-(Cyclopropylamino)-5-((3-((methylsulfinyl)methyl)-4-(1H-pyrazol-4-yl)phenyl)amino)pyrazolo[1,5-a]pyrimidine-3-carbonitrile] | > 10 |

Other lines, results leading:

| Ki [nM] | SMILES |
| --- | --- |
| 2.5 to 10 | CC(N)c1ccc(Nc2cc(NC3CC3)n3ncc(C#N)c3n2)cc1C[S+](C)[O-] (racemic) [Example 58, (±)-5-((4-((R,S)-1-Aminoethyl)-3-((methylsulfinyl)methyl)phenyl)amino)-7-(cyclopropylamino)pyrazolo[1,5-a]pyrimidine-3-carbonitrile mono trifluoroacetic acid salt] |
| < 2.5 | CN(CC1(N)CC1)c1ccc(Nc2cc(NC3CC3)n3ncc(C#N)c3n2)cc1CS(C)(=O)=O [Example 66, 5-((4-(((1-aminocyclopropyl)methyl)(methyl)amino)-3-((methylsulfonyl)methyl)phenyl)amino)-7-(cyclopropylamino)pyrazolo[1,5-a]pyrimidine-3-carbonitrile mono trifluoroacetic acid salt] |
| < 2.5 | C[S+]([O-])Cc1cc(Nc2cc(Nc3cccnc3)n3ncc(C#N)c3n2)ccc1C1CC1 (racemic) [Example 55, (±)-5-((4-Cyclopropyl-3-((methylsulfinyl)methyl)phenyl)amino)-7-(pyridin-3-ylamino)pyrazolo[1,5-a]pyrimidine-3-carbonitrile] |
| < 2.5 | C[S+]([O-])Cc1cc(Nc2cc(Nc3ccccn3)n3ncc(C#N)c3n2)ccc1C1CC1 (racemic) [Example 54, (±)-5-((4-Cyclopropyl-3-((methylsulfinyl)methyl)phenyl)amino)-7-(pyridin-2-ylamino)pyrazolo[1,5-a]pyrimidine-3-carbonitrile] |
| 2.5 to 10 | CN(CCN)c1ccc(Nc2nc(NC3CC3)c3ncc(C#N)n3n2)cc1C[S+](C)[O-] (racemic) [Example 49, (±)-2-((4-((2-aminoethyl)(methyl)amino)-3-((methylsulfinyl)methyl)phenyl)amino)-4-(cyclopropylamino)imidazo[2,1-f][1,2,4]triazine-7-carbonitrile mono trifluoroacetic acid salt] |
| < 2.5 | CN(C)Cc1ccc(Nc2cc(Nc3ccc(C4CC4)c(C[S+](C)[O-])c3)nc3c(C#N)cnn23)nc1 (racemic) [Example 69, (±)-5-((4-Cyclopropyl-3-((methylsulfinyl)methyl)phenyl)amino)-7-((5-((dimethylamino)methyl)pyridin-2-yl)amino)pyrazolo[1,5-a]pyrimidine-3-carbonitrile] |
| < 2.5 | CN(CC(C)(C)N)c1ccc(Nc2cc(NC3CC3)n3ncc(C#N)c3n2)cc1C[S+](C)[O-] (racemic) [Example 67, (±)-5-((4-((2-Amino-2-methylpropyl)(methyl)amino)-3-((methylsulfinyl)methyl)phenyl)amino)-7-(cyclopropylamino)pyrazolo[1,5-a]pyrimidine-3-carbonitrile mono trifluoroacetic acid salt] |
| 2.5 to 10 | C[S+]([O-])Cc1cc(Nc2cc(NC3CC3)n3ncc(C#N)c3n2)ccc1C1(N)CC1 (racemic) [Example 59, (±)-5-((4-(1-Aminocyclopropyl)-3-((methylsulfinyl)methyl)phenyl)amino)-7-(cyclopropylamino)pyrazolo[1,5-a]pyrimidine-3-carbonitrile mono trifluoroacetic acid salt] |
| 2.5 to 10 | C[S+]([O-])Cc1cc(Nc2cc(NC3CC3)n3ncc(C#N)c3n2)ccc1C1CCNC1 (racemic) [Example 63, (±)-7-(Cyclopropylamino)-5-((3-((methylsulfinyl)methyl)-4-((R,S)-pyrrolidin-3-yl)phenyl)amino)pyrazolo[1,5-a]pyrimidine-3-carbonitrile mono trifluoroacetic acid salt] |
| < 2.5 | C[S+]([O-])Cc1cc(Nc2cc(Nc3ccc(N)nc3)n3ncc(C#N)c3n2)ccc1C1CC1 (racemic) [Example 56, (±)-7-((6-Aminopyridin-3-yl)amino)-5-((4-cyclopropyl-3-((methylsulfinyl)methyl)phenyl)amino)pyrazolo[1,5-a]pyrimidine-3-carbonitrile] |
| < 2.5 | C/C(=C\CN)c1ccc(Nc2cc(NC3CC3)n3ncc(C#N)c3n2)cc1C[S+](C)[O-] (racemic) [Example 60, (±)-(E)-5-((4-(4-aminobut-2-en-2-yl)-3-((methylsulfinyl)methyl)phenyl)amino)-7-(cyclopropylamino)pyrazolo[1,5-a]pyrimidine-3-carbonitrile mono trifluoroacetic acid salt] |
